This is an account of results in patent US12180198B2, “Ribocil C antibiotics effective for Gram-negative pathogens” (THE BOARD OF TRUSTEES OF THE UNIVERSITY OF ILLINOIS, priority 2018, dated 2024).

Test [1] relates to Gram-negative ESKAPE pathogens and E. coli. Briefly: MIC, micro-dilution broth method (text summary). The class given is cell-based. The note with it: Gram-negatives with intact outer membranes. On the procedure: FIG. 2. Antimicrobial activity of Debio-1452 and derivatives. MIC values were determined using the micro-dilution broth method as outlined by the Clinical and Laboratory Standards Institute (clsi.org/). All experiments were performed in biological triplicate.
(§1) Antimicrobial susceptibility tests. Susceptibility testing was performed in biological triplicate, using the micro-dilution broth method as outlined by the Clinical and Laboratory Standards Institute. Bacteria were cultured with cation-adjusted Muller-Hinton broth (Sigma-Aldrich, Cat #90922) in round-bottom 96-well plates (Corning, Cat #3788). Human serum (pooled gender, 0.2 μm filtered) was purchased from BioIVT (Hicksville, NY).
On the technique in general: Broth dilution looks for growth in wells or tubes with falling amounts of substance.

In a further test the target is E. coli FabI (Escherichia coli, UniProt P0AEK4). Put plainly: In vitro FabI inhibition assay. The format is biochemical. The note with it: 20 nM enzyme. As to the method: Expression and purification of E. coli FabI. E. coli BL21 (DE3) pLysS (Novagen) were transformed with pET15-ecFabI. Overnight culture (10 mL) in LB supplemented with 50 μg/mL ampicillin from single colony was diluted into 1 L LB+50 μg/mL ampicillin. Cells were grown at 37° C., 250 rpm until OD600 reached 0.8. Culture was cooled to 18° C. and induced with 0.5 mM IPTG for 18 h at 18° C. Cells were harvested by centrifugation (5,000×g, 10 min, 4° C.). Cell pellets were flash frozen and store at −20° C. pending purification. Frozen cell pellets were thawed on ice and resuspended (5 mL per gram wet pellet, typically 20-30 mL) with 0.5% CHAPS, 1 mM PMSF, 1 μg/mL leupeptin, 1 μg/mL pepstatin A, and 2 μg/mL aprotinin in binding buffer [20 mM Tris (pH 7.9), 500 mM NaCl, 5 mM imidazole]. Cells were lysed by sonication on ice (30%, 10 s pulse, 20 s rest, 5 min total). Lysate was clarified by centrifugation (35,000×g, 1 h, 4° C.) and filtration through 0.2 μm syringe filter. Lysate was incubated with 5 mL Co-NTA agarose (HisPur cobalt resin, Thermo-Fisher Scientific Cat #89965, pre-equilibrated with binding buffer) for 30 min at 4° C. with gentle rocking. Agarose-containing lysate was transferred to column and flow through discarded. Column was washed with 2 column volumes of binding buffer followed by 10 column volumes of wash buffer [20 mM Tris (pH 7.9), 500 mM NaCl, 60 mM imidazole]. Protein was eluted with 15 mL elution buffer [20 mM Tris (pH 7.9), 500 mM NaCl, 300 mM imidazole]. […] Protein concentration was determined by BCA assay (ThermoFisher Cat #23227).
E. coli FabI, sequence (P0AEK4 whole entry): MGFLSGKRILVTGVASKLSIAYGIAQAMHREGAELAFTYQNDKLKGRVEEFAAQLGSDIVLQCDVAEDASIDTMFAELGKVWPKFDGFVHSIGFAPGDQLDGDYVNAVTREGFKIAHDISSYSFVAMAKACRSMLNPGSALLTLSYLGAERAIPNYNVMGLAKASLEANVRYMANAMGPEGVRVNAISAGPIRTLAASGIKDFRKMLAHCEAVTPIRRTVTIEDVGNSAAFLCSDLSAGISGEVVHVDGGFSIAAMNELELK
In vitro FabI inhibition assay. […] Plate was placed in plate-reader (SpectraMax 190, Molecular Devices) under temperature control (25° C.), and temperature was allowed to equilibrate. […] After shaking for 5 s, reaction progress was monitored by absorbance at 340 nm every 15 s for 90 min. Linear portion of reaction progress curve was fit using plate-reader software (SoftMax Pro 7.0). Percent activity was calculated relative to DMSO-only and no-enzyme controls in each plate. […]

The next test concerns P. aeruginosa PA01. Put plainly: MIC, micro-dilution broth method. The format is cell-based. The conditions noted are these: Pseudomonas aeruginosa; P. aeruginosa PA01; read-out: MIC. On the procedure: (§2) Compounds were evaluated against a panel of Gram-positive and Gram-negative organisms. MIC values were determined using the micro-dilution broth method as outlined by the Clinical and Laboratory Standards Institute (clsi.org/) and are listed in […]. All experiments were performed in biological triplicate.
as §1

The subject of the next test is A. baumannii W41979. Briefly: MIC, micro-dilution broth method. The format is cell-based. The conditions noted are these: Acinetobacter baumannii; A. baumannii W41979; read-out: MIC. On the procedure: as §2, §1
In another test the test system is E. cloacae ATCC 29893. Put plainly: MIC, micro-dilution broth method. The format is cell-based. The conditions noted are these: Enterobacter cloacae, ATCC29893; E. cloacae ATCC 29893; read-out: MIC. As to the method:
as §2, §1

Another test relates to E. coli AR-0493. Briefly: MIC, micro-dilution broth method. The format is cell-based. The conditions noted are these: Escherichia coli, AR0493; E. coli AR-0493; read-out: MIC. As to the method: as §2, §1
For another test, the system named is K. pneumoniae S47889. Briefly: MIC, micro-dilution broth method. The class given is cell-based. The conditions noted are these: Klebsiella pneumoniae; K. pneumoniae S47889; read-out: MIC. As to the method: as §2, §1
In another test the test system is E. coli BAA-2340. Put plainly: MIC, micro-dilution broth method. The format is cell-based. The conditions noted are these: Escherichia coli, BAA2340; E. coli BAA-2340; read-out: MIC. On the procedure:
as §2, §1

The test system of another test is S. aureus ATCC 29213. Briefly: MIC, micro-dilution broth method. The class given is cell-based. The note with it: Staphylococcus aureus, ATCC29213, S. aureus ATCC 29213; read-out: MIC. As to the method: as §2, §1
The next test relates to E. coli ΔtolC JW5503. Briefly: MIC, micro-dilution broth method. The format is cell-based. The note with it: Escherichia coli. On the procedure: as §2, §1
In the next test the test system is E. coli ΔrfaC JW3596. Put plainly: MIC, micro-dilution broth method. The format is cell-based. The conditions noted are these: Escherichia coli. On the procedure:
as §2, §1

Another test deals with E. coli MG1655. Put plainly: MIC, micro-dilution broth method. The class given is cell-based. The note with it: Escherichia coli; E. coli MG1655; read-out: MIC. As to the method:
as §2, §1

In brackets after ≈: the same amount, converted by molar mass.

Broadly, the MIC is the lowest concentration that inhibits growth of the organism. In the case of `Cc1c(CN(C)C(=O)/C=C/c2cnc3c(c2)CC(NC(=O)OC(C)(C)C)C(=O)N3)oc2ccccc12` (stereo not drawn) [compound 8, tert-butyl(E)-(6-(3-(methyl((3-methylbenzofuran-2-yl)methyl)amino)-3-oxoprop-1-en-1-yl)-2-oxo-1,2,3,4-tetrahydro-1,8-naphthyridin-3-yl)carbamate], the “activity (in words)” value in test [1] is reported as “no activity”. Moreover, the “inhibition of E. coli FabI in vitro (in words)” value on E. coli FabI is listed as “potent FabI inhibitors”. The MIC in the test with P. aeruginosa PA01, with A. baumannii W41979, in the test on E. cloacae ATCC 29893, with E. coli AR-0493, in the test with K. pneumoniae S47889 and in the test with E. coli BAA-2340 was greater than 32 mg/L throughout. For the same molecule, the minimal inhibitory concentration (MIC) in the test on S. aureus ATCC 29213 was 0.016 mg/L (≈ 0.0326 µM); against E. coli ΔtolC JW5503 it was 0.125 mg/L (≈ 0.255 µM); in the test on E. coli ΔrfaC JW3596 it was 0.25 mg/L (≈ 0.51 µM); with E. coli MG1655, greater than 32 mg/L.
